Tests used:
EESCs [1] = assay: CCK-8 cytotoxicity without laser irradiation; format: cell-based, human; conditions: CCK-8, 24 h incubation, ICG concentration up to 300 µg mL^−1
Description: (§1) After 24 h, the medium was replaced with fresh medium containing 10% CCK‐8 reagent and incubated for an additional 2 h. The absorbance at 450 nm was measured using a Synergy 2 multimode microplate reader (BioTek, USA), with the wells without cells serving as blanks. All experiments were performed in triplicate.

Ishikawa cells [2] = assay: In vitro photothermal/photodynamic therapy, CCK-8 viability after laser; format: cell-based; conditions: CCK-8, 2 h incubation, 808 nm, 1.0 W cm^−2, 5 min, concentration of the quoted value not stated (range 2.5 to 50 µg mL^−1 ICG), mean ± SD, n = 4
Description: Ishikawa cells and EESCs were seeded in a 96‐well plate at a density of 1 × 10^4 cells per well and allowed to adhere overnight. […] Following this incubation, the cells were irradiated with an 808 nm laser (1.0 W cm^−2, 5 min). The viability of cells was measured using the CCK‐8 assay.

[3] = In vivo fluorescence imaging, off-target effects and clearance in healthy mice; set-up: species or system BALB/c nude mice
EMS lesions [4] = assay: In vivo T1-weighted MRI of EMS lesions; set-up: species or system Wistar female rats; conditions: EMS rats, 4.5 mg Gd per kg i.v., 30 min and 5 h post-injection, 3.0 T
Description: Prior to the imaging procedure, the rats were anesthetized through intraperitoneal injection of 1% sodium pentobarbital at a dosage of 45 mg kg^−1. Following anesthesia, the rats were positioned inside a 3.0 T MRI scanner sourced from the First Hospital of Sun Yat‐sen University.
Prior to drug administration, the rats underwent T 1‐weighted imaging using the fast spin‐echo sequence with the following parameters: TR = 400 ms; TE = 12 ms; FOV = 80 mm × 80 mm; matrix size = 672 × 672; voxel size = 0.24 mm × 0.24 mm; slice thickness = 1 mm; flip angle = 150°; and NSA = 5.
T 1‐weighted imaging using the fast spin‐echo sequence was repeated at 30 min and 5 h post‐injection, respectively, with adjusted parameters: TR = 425 ms; TE = 12 ms; FOV = 80 mm × 80 mm; matrix size = 384 × 384; voxel size = 0.42 mm × 0.42 mm; slice thickness = 1 mm; flip angle = 150°; and NSA = 7.

[5] = UV absorption and fluorescence emission spectra; format: physicochemical; conditions: in PBS, cRGD-ILD C ICG = 10 µg mL^−1, ICG 5 µg/mL
Description: The ^1H NMR spectra were conducted utilizing a Varian Unity 400 MHz Spectrometer ([…]) in a variety of deuterated solvents. ESI‐MS were obtained with a Thermo Scientific LTQ XL mass spectrometer (Thermo, USA). UV absorption spectra were measured by a Unico UV‐2000 UV–vis Spectrophotometer (Shanghai, China). Photoluminescence excitation and emission spectra were recorded using an FSP920‐combined Time Resolved and Steady State Fluorescence Spectrometer (Edinburgh, UK), equipped with a 450‐W xenon lamp. Both the UV and fluorescence spectrophotometers were scanned within the wavelength range of 650–850 nm.

Ishikawa cells [6] = assay: CCK-8 cytotoxicity without laser irradiation; format: cell-based; conditions: CCK-8, 24 h incubation, ICG concentration up to 300 µg mL^−1
Description: as §1

Ishikawa cells [7] = assay: Cellular internalization of probes by flow cytometry; format: cell-based; conditions: in Figure 3g
Description: (§2) Furthermore, the cellular internalization of the probes was quantitatively evaluated using flow cytometry. […] After these incubation periods, the cells were washed three times with PBS, trypsinized, and collected. The harvested cells were then analyzed using an Attune NxT flow cytometer (Invitrogen, USA). The data obtained was analyzed utilizing NovoExpress 1.4.0 software (Agilent, USA).

EESCs [8] = assay: as above; format: cell-based, human; conditions: EESC, in Figure 3g
Description: as §2

EMS lesions [9] = assay: In vivo infrared thermography of EMS lesions; set-up: species or system BALB/c nude mice; conditions: EMS nude mice, ICG 500 µg kg^−1 i.v., 1 h post-injection, 808 nm laser 1.0 W cm^−2, within 5 min; n = 3
Description: As shown in previous references,^[ [19] ^] to establish a xenograft EMS model in nude mice, female BALB/c nude mice (5‐6 weeks, 18‐20 g) served as recipients, and female Sprague–Dawley rats (7‐9 weeks, 200–240 g) with regular 4–5 days estrous cycles were selected as donors after a week of acclimatization. Prior to surgery, nude mice received daily intramuscular β‐estradiol 17‐pentanoate (0.25 µg g^−1) for 3 days. The EMS model was induced by subcutaneous transplantation of ≈40 mg of rat uterine fragments into nude mice. The uterine horns from euthanized donors were sterilely collected, bisected, minced, and suspended in DMEM/F12 medium before injection. Nude mice then received β‐estradiol 17‐pentanoate (0.25 µg g^−1) injections every 2 days, and endometriotic lesions reaching 100 mm^3 were used for subsequent experiments.
To investigate the photothermal heating efficacy at lesion sites in EMS mice, in vivo infrared thermography studies were conducted. […] Thermal responses were monitored in real‐time using a digital thermographic camera (Fluke Ti27, IR Fusion Technology, USA). Infrared thermal images were captured, and temperature measurements were recorded. The temporal correlation between temperature elevation and laser irradiation duration was analyzed using AnalyzIR software (4.0.0).

[10] = C ICG = 2.5 µg mL^−1, 1 h incubation
[11] = C ICG = 2.5 µg mL^−1, 4 h incubation

Row | Substance | cell viability without laser irradiation (EESCs [1]) | cell viability after laser irradiation (Ishikawa cells [2]) [%] | tissue distribution by serial in vivo fluorescence imaging ([3]; healthy BALB/c nude mice, ICG 1000 µg kg^−1 i.v.) | fluorescence signal as % of the 24 h level ([3]; healthy BALB/c nude mice, ICG 1000 µg kg^−1 i.v., within 7 days, n = 3) | ex vivo fluorescence of major organs ([3]; healthy nude mice, 10 days post-injection, heart, liver, spleen, lungs, kidneys) | T 1-weighted signal intensity at the lesion site (EMS lesions [4]) | fluorescence emission peak ([5]; λex = 755 nm) [nm] | absorption peak [5] [nm] | cell viability without laser irradiation (Ishikawa cells [6]) | internalized probes by flow cytometry (Ishikawa cells [7]; [10]) [%] | internalized probes by flow cytometry (Ishikawa cells [7]; [11]) [%] | internalized probes by flow cytometry (EESCs [8]; [10]) [%] | internalized probes by flow cytometry (EESCs [8]; [11]) [%] | localized (maximum) temperature at the EMS lesion (EMS lesions [9]) [°C]
1 | c(RGDyK)‐ICG‐lys‐DTPA@Gd (head to tail) [cRGD‐ILD, targeting theranostic probe integrating cRGD peptide, ICG fragment and DTPA@Gd complex] | above 90% | 23.8 ± 1.36 | no specific tissue distribution | ≈ 14.75% | minimal residual fluorescence | notable enhancement | 764 | 755 | above 90% |  |  |  |  | 
2 | ICG‐lys‐DTPA@Gd [ILD] |  | 48.41 ± 1.74 |  |  |  | no significant increase |  |  |  | 61.98 | 93.22 | 74.68 | 94.41 | 34.5

Reference: paper PMC12631912, “A Multifunctional Molecular Probe for Multimodal Imaging‐Guided Potent Photothermal/Photodynamic Therapy of Endometriosis” (Advanced Science, 2025)
